Assay results as given in the supplement of paper PMC11061612.

Key:
Test in all cases: combination Emax (second highest fraction inhibited in the dose matrix, 72 h); higher = more inhibition; extreme values may be limits of the assay
AM-38 (Glioblastoma) = system: AM-38 (Glioblastoma)
Summary of the method: (§1)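 Cell lines in DMEM/F12 or RPMI with 10% FBS were plated in 1536-well plates, held 24 hours at 37°C, 5% CO2, then given two-drug dose matrices for 72 hours (DMSO typically 0.2%). Viability was read by CellTiter-Glo 2.0 luminescence and scaled as inhibition from 0 (vehicle wells) to 1 (blank wells). Combination Emax is the second-highest inhibition in the matrix; Bliss excess is observed combination effect minus expected EA + EB − EA·EB, EA and EB being single-agent effects.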

[1] = system: BHT-101 (Thyroid Gland Carcinoma)
Summary of the method: as §1

[2] = system: BxPC-3 (Pancreatic Carcinoma)
Summary of the method: as §1

[3] = system: C-33-A (Cervical Carcinoma)
Summary of the method: as §1

[4] = system: COR-L88 (Small Cell Lung Carcinoma)
Summary of the method: as §1

[5] = system: CPC-N (Small Cell Lung Carcinoma)
Summary of the method: as §1

[6] = system: HT-1080 (Other Solid Carcinomas)
Summary of the method: as §1

[7] = system: IA-LM (Non-Small Cell Lung Carcinoma)
Summary of the method: as §1

[8] = system: KP-4 (Pancreatic Carcinoma)
Summary of the method: as §1

[9] = system: LCLC-103H (Non-Small Cell Lung Carcinoma)
Summary of the method: as §1

[10] = system: LS-1034 (Colorectal Carcinoma)
Summary of the method: as §1

[11] = system: MOLP-8 (Plasma Cell Myeloma)
Summary of the method: as §1

NCI-H226 (Mesothelioma) = system: NCI-H226 (Mesothelioma)
Summary of the method: as §1

[12] = system: NCI-H3118 (Head and Neck Carcinoma)
Summary of the method: as §1

[13] = system: OVCAR-3 (Ovarian Carcinoma)
Summary of the method: as §1

[14] = system: SAT (Head and Neck Carcinoma)
Summary of the method: as §1

[15] = system: SCC-4 (Oral Cavity Carcinoma)
Summary of the method: as §1

SK-N-SH (Neuroblastoma) = system: SK-N-SH (Neuroblastoma)
Summary of the method: as §1

[16] = system: SNU-C2B (Colorectal Carcinoma)
Summary of the method: as §1

UACC-257 (Melanoma) = system: UACC-257 (Melanoma)
Summary of the method: as §1

| SMILES | combination Emax (AM-38 (Glioblastoma)) | combination Emax [1] | combination Emax [2] | combination Emax [3] | combination Emax [4] | combination Emax [5] | combination Emax [6] | combination Emax [7] | combination Emax [8] | combination Emax [9] | combination Emax [10] | combination Emax [11] | combination Emax (NCI-H226 (Mesothelioma)) | combination Emax [12] | combination Emax [13] | combination Emax [14] | combination Emax [15] | combination Emax (SK-N-SH (Neuroblastoma)) | combination Emax [16] | combination Emax (UACC-257 (Melanoma)) |
| --- | --- | --- | --- | --- | --- | --- | --- | --- | --- | --- | --- | --- | --- | --- | --- | --- | --- | --- | --- | --- |
| COc1cccc(OCCCN)c1-c1cc(Nc2cnc(C#N)cn2)n[nH]1 [Prexasertib] + CCc1c2c(nc3ccc(O)cc13)-c1cc3c(c(=O)n1C2)COC(=O)[C@]3(O)CC [SN-38] (first compound max 1 µM, 7x7, partner max 0.3 µM) | 0.891 | 0.91 | 0.796 | 0.992 | 0.866 | 1 | 0.651 | 0.867 | 0.9 | 0.932 | 0.897 | 0.847 | 0.4 | 0.872 | 0.963 | 0.618 | 0.917 | 0.947 | 0.658 | 0.295 |
| Cn1cnc2c(F)c(Nc3ccc(Br)cc3Cl)c(C(=O)NOCCO)cc21 [Selumetinib] + CC(C)n1c(=O)n(C)c2cnc3cc(F)c(-c4ccc(OCCCN5CCCCC5)nc4)cc3c21 [AZD1390] (first compound max 10 µM, 7x7, partner max 0.3 µM) | 0.437 | 0.791 | 0.4 | 0.264 | 0.198 | 0.0753 | 0.261 | 0.244 | 0.283 | 0.138 | 0.689 | 0.325 | 0.133 | 0.577 | 0.048 | 0.47 | 0.278 | 0.146 | 0.29 | 0.568 |
| CN(C)CCCOc1ccc(-c2ccc3ncc4c(c3c2)n(C2CCOCC2)c(=O)n4C)cn1 [AZD0156] + C[C@@H]1COCCN1C2=NC(=NC(=C2)C3(CC3)[S@](=N)(=O)C)C4=C5C=CNC5=NC=C4 [AZD6738] (first compound max 1 µM, 7x7, partner max 10 µM) | 0.868 | 0.627 | 0.475 | 0.886 | 0.8 | 0.952 | 0.507 | 0.304 | 0.451 | 0.55 | 0.615 | 0.848 | 0.0975 | 0.672 | 0.271 | 0.361 | 0.702 | 0.87 | 0.681 | 0.145 |
| Cc1c2c(nn1C)CSCc1cc(n(C)n1)CSc1cc(c3ccccc3c1)OCCCc1c(C(=O)O)n(C)c3c-2c(Cl)ccc13 [AZD5991] + CC1(C)CCC(CN2CCN(c3ccc(C(=O)NS(=O)(=O)c4ccc(NCC5CCOCC5)c([N+](=O)[O-])c4)c(Oc4cnc5[nH]ccc5c4)c3)CC2)=C(c2ccc(Cl)cc2)C1 [Venetoclax] (first compound max 1 µM, 7x7, partner max 1 µM) | 0.597 | 0.587 | 0.334 | 0.484 | 0.817 | 0.289 | 0.188 | 0.317 | 0.157 | 0.145 | 0.152 | 1 | 0.196 | 0.412 | 0.171 | 0.703 | 0.345 | 0.921 | 0.201 | 0.308 |
| Cc1cc2ncnn2cc1Nc1ncc2c(n1)n(C1CCOCC1)c(=O)n2C [AZD7648] + C=CCn1c(=O)c2cnc(Nc3ccc(N4CCN(C)CC4)cc3)nc2n1-c1cccc(C(C)(C)O)n1 [AZD1775] (first compound max 10 µM, partner max 1 µM) | 0.343 | 0.471 | 0.428 | 0.93 | 0.545 | 0.931 | 0.405 | 0.42 | 0.59 | 0.552 | 0.379 | 0.828 | 0.297 | 0.897 | 0.411 | 0.623 | 0.466 | 0.884 | 0.551 | 0.226 |
| CS(=O)(=O)CCNCc1ccc(-c2ccc3ncnc(Nc4ccc(OCc5cccc(F)c5)c(Cl)c4)c3c2)o1 [Lapatinib] + C[C@@H](Oc1cc(-c2cnn(C3CCNCC3)c2)cnc1N)c1c(Cl)ccc(F)c1Cl [Crizotinib] (first compound max 10 µM, 7x7, partner max 10 µM) | 0.91 | 0.98 | 0.946 | 0.921 | 0.57 | 0.845 | 0.823 | 0.489 | 0.761 | 0.624 | 0.946 | 0.978 | 0.44 | 0.928 | 0.548 | 0.981 | 0.913 | 0.899 | 0.753 | 0.947 |
